Laboratory results from patent publication US5976523A, “Method for healing compromised tissues using pyrimidine derivatives” (Mitsui Pharmaceuticals, Inc., priority 1995, dated 1999).
Counter-ions that a name gives are not always drawn.

What was measured:
bone defect (tibia) = assay: Rat bone defect model, formation of hyaline cartilage matrix; format: in vivo; conditions: bFGF (0.5 μg) + compound (0.5 mg) pellet, 7th day, vs bFGF pellet
From the text: Action of 2-piperazino-6-methyl-5-oxo-5,6-dihydro(7H)pyrro[3,4-d]pyrimidinemaleate on in vivo chondrogenesis was studied in detail by preparing a rat bone defect model which permits observation of bFGF-derived formation of a hyaline cartilage matrix. Embedment of a bFGF-containing pellet in a bone defect of the model permits easy observation of formation of a hyaline cartilage matrix under the periosteum around the bone defect. Rats were divided into three groups. The rats in one of the groups were each embedded in a formed bone defect (diameter: 2.6 mm) thereof with a hydroxyethyl methacrylate pellet (10 mg) which contained bFGF (0.5 μg). The rats in another one of the groups were each embedded likewise with a hydroxyethyl methacrylate pellet (10 mg) which contained bFGF (0.5 μg) and the invention compound (0.5 mg). The rats in the remaining group, that is, a control group were each embedded similarly with a pellet which contained physiological saline. After the rats in all the three groups were sacrificed seven days later, action of bFGF or the invention compound on the process of chondrogenesis on enchondral ossification around the bone defect was investigated. On the 7th day after the formation of the bone defect, the tibia of each rat was histologically examined around the bone defect.

PDGF-A mRNAs = assay: Polysome distribution (translation) of PDGF-A mRNAs in rat SMCs; format: cell-based
Description: SMCs were prepared following the method proposed by Ross and Klebanoff in "J. Cell. […] A rat thoracic aorta was excised. After the tunica externa was peeled off, the tunica media and the tunica intima were minced into 2-3 mm^2. The minced sections were placed standstill in a 25-cm^2 flask which contained Waymouth's MB 752/1 medium containing 10% FBS and 80 ng/ml of gentamycin (product of Schering-Plough Corp.), followed by incubation at 37° C. for 2 to 3 weeks in the presence of 5% carbon dioxide gas (primary culture). The same volume of a trypsin-EDTA solution was added to the flask. After the sections were treated at 37° C. for 5 minutes to peel off cells, the cells were diluted with 10% FBS-Waymouth's MB 752/1 medium and then subcultured (second generation). Subculture was successively conducted likewise whenever the SMC became confluent. In the following experiments, the cells from the 5th generation to the 12th generation were employed. After reach in confluence of cells, the cultured SMCs were cultured for 2 days in a serum-free medium to avoid influence of serum. The SMCs were then added with thrombin (1.0 U/ml) or serotonin (5 μM), followed by incubation at 37° C. for 6 hours under which bring about induction of PDGF-A mRNAs at the maximum. To prevent dissociation of ribosomes and mRNAs, cycloheximide (100 μg/ml) was added 5 minutes before cells were collected. […] Biol. Chem.", 267, 508 ff, 1992 with slight modifications. The cells, which had been collected by the treatment with trypsin, were washed with PBS containing cycloheximide (100 μg/ml). A cell precipitate was then added with 500 μl of a high-salt lysis buffer (20 mM Tris-HCl pH 7.5, 250 mM NaCl, 5 mM MgCl2, 0.1% Noni det P-40, 0.2% DOC) for homogenization. The homogenate was centrifuged under 12,000×g at 4° C. for 10 minutes. The resulting supernatant was added with 67 μl of a heparine mix (7.4 mg/ml heparine, 1.1M NaCl, 15 mM DTT and RNasin). 200 μl of the extract were layered on 5 ml of 0.5-1.25M linear sucrose gradient (which contained 20 mM Tris-HCl pH 7.4, 10 mM NaCl, 3 mM MgCl2), followed by centrifugation under 45,000 rpm for 90 minutes in a "Hitachi […]". While monitoring the absorbance at 260 nm, ten (10) fractions were obtained. […] Subsequent to incubation at 37° C. for 1 hour, each fraction was extracted once with 1/2 volume of phenol, twice with 1/2 volume aliquots of chloroform, and once with the equal volume of chloroform, whereby proteins were removed. The water layer was added with glycogen (20 μg/ml) as a coprecipitant and then with 0.03M of sodium acetate, and RNAs were caused to precipitate with 2 volumes of ethanol. After RNAs were incubated at 65° C. for 5 minutes in a solution containing 60% of formamide, 5.9% of formaldehyde and the equal volume of MOPS buffer (10 mM MOPS pH 7.0, 4 mM NaOAc, 0.5 mM EDTA), electrophoresis was conducted across 1.2% agarose gels containing the equal volume of MOPS buffer so that RNAs were. isolated. After the gel was washed with 20 volumes of SSC, RNAs were blotted overnight to a Gene Screen Plus membrane by the capillary method. Fixing of the RNAs was conducted by exposing them for 1 minute at a distance of 10 cm from […]. Using a "QuickHyb Hybridization Solution" (product of Strategene Ltd.), hybridization was conducted following the instruction manual attached to the solution. Results of autoradiography were quantitated with reference to the NIH Image. […]

TMK1 cells = assay: Morphological change of TMK1 cells; format: cell-based

**Q.** With `CN1Cc2nc(N3CCNCC3)ncc2C1=O` [Compound B, 2-piperazino-6-methyl-5-oxo-5,6-dihydro(7H)pyrro[3,4-d]pyrimidine maleate] as the compound, how does the “formation of a hyaline cartilage matrix” value (bone defect (tibia)) read?
**A.** in an amount apparently larger than that formed in the group embedded with the bFGF-containing pellet

**Q.** What about the “translation state of 1.3 kb PDGF-A mRNAs” value (PDGF-A mRNAs; compound) of the same compound?
**A.** in a translated form

**Q.** What about the “translation state of 1.7 kb PDGF-A mRNAs” value (PDGF-A mRNAs; compound, serum-free medium) of the same compound?
**A.** converted into a translated form

**Q.** What about the “translation state of PDGF-A mRNAs” value (PDGF-A mRNAs; thrombin + compound) of the same compound?
**A.** converted into a translated form

**Q.** And the “time of sprouting of the process of the cells similar to neurites” value (TMK1 cells; EGF and compound)?
**A.** 8 h

**Q.** And the morphological changes (TMK1 cells; EGF and compound, compared with EGF alone)?
**A.** still more marked intensive morphological changes

**Q.** And the “network formation of cell processes” value (TMK1 cells; EGF and compound, day 1)?
**A.** forming a dense network on day 1

**Q.** And the morphological changes (TMK1 cells; singly added, 1 mM, fifth hour to day 1)?
**A.** only slight morphological changes

**Q.** What about the “morphological changes after removal of the test agent” value (TMK1 cells; test agent removed) of the same compound?
**A.** these morphological changes disappeared
